In patent publication US20190125864A1, “COMBINATION THERAPY OF RAMUCIRUMAB AND ABEMACICLIB FOR USE IN TREATMENT OF MANTLE CELL LYMPHOMA” (Eli Lilly and Company, priority 2016, published 2019):

System: human Mino xenografts
Assay: IVEF study: growth inhibition of subcutaneous Mino xenografts (mantle cell lymphoma) in mice
Format: in vivo
Conditions: for % ΔT/C: day 53, baseline day 32
Experimental: This study evaluates the overall sensitivity of the Mino xenograft model for mantle cell lymphoma (MCL) to growth inhibition by abemaciclib. Accordingly, mice are implanted subcutaneously with human Mino xenografts treated once-daily for 28 days (QD×28) with 25 or 50 mg/kg of abemaciclib monomesylate (“compound”). In addition the response of this model to single-agent DC101, an antibody inhibitor of VEGFR2, is also evaluated as well as the combination of this antibody with abemaciclib. DC101, which is a mouse surrogate of ramucirumab, is evaluated in these studies at a dose of 20 mg/kg given twice-weekly over a period of 4 weeks (BIW×4) whereas mice in the combination group are given this dose of DC101 plus 25 mg/kg of abemaciclib. Tumor volume measurements are taken periodically to determine the effects of the various treatments on tumor growth and periodic body weight measurements are used as a general indicator of tolerability.
Female Fox Chase CB17SCID (Harlan Laboratories) mice are used for these studies. The animals are housed until they reach 18-20 […] in size.
The compound is formulated in 1% hydroxyethyl cellulose (HEC) in 25 mM phosphate buffer (PB) pH=2. The compound is formulated on a weekly basis and stored at 4° C. For the efficacy studies, the compound is administered by oral gavage once-daily for 28 days (PO, QD×28) at doses of 25 or 50 mg/kg using 0.2 ml/dose beginning on day 33 after tumor implantation. The control group is given 1% HEC vehicle according to the same schedule for the compound. The mouse surrogate for ramucirumab known as DC101 is formulated in phosphate buffered saline (PBS) and is given twice-weekly (BIW) for 4 weeks as an intraperitoneal (IP) injection at a dose of 20 mg/kg beginning on day 34. Mice in the combination group are given 25 mg/kg of the compound and 20 mg/kg of DC101 following the schedules outlined above for the monotherapy groups.
The human MCL line Mino is grown in RPMI 1640 medium+20% fetal bovine serum (FBS). Sub-confluent cells are harvested and rinsed twice with Hank's balanced saline solution (HBSS) without serum. For subcutaneous tumors, growth is initiated by subcutaneous injection of 5×10^6 cells in a 1:1 mixture of HBSS and MATRIGEL® (BD Bioscience, Franklin Lakes, N.J.) in the rear flank of each subject animal. When mean tumors volumes reach approximately 150 mm^3 in size, the animals are randomized by tumor size and body weight using a proprietary block randomization allocation tool and placed into their respective treatment groups using 7 animals per group.
Tumor size and body weight are captured using WEB DIRECTOR™. Tumor volume (V) is estimated by using the formula: V=0.536L×W^2 where L=larger of measured diameter and W=smaller of perpendicular diameter. The tumor volume data is transformed to a log scale to equalize variance across time and treatment groups. The log volume data ae analyzed with a two-way repeated measures analysis of variance by time and treatment using the MIXED procedures in SAS software (Version 9.3). The correlation model for the repeated measures is Spatial Power. Treated groups are compared to the control group at each time point. The MIXED procedure is also used separately for each treatment group to calculate adjusted means and standard errors at each time point. Both analyses accounted for the autocorrelation within each animal and the loss of data that occur when animals with large tumors are removed from the study early. The adjusted means and standard errors are plotted for each treatment group versus time.
Relative changes in tumor volume (% ΔT/C) are calculated using the tumor volume measurements taken on the day (day 53) when the control group has to be sacrificed due to tumor sizes that exceeded the threshold defined by ethical guidelines. […]

CCN1CCN(Cc2ccc(Nc3ncc(F)c(-c4cc(F)c5nc(C)n(C(C)C)c5c4)n3)nc2)CC1 [Compound, [5-(4-ethyl-piperazin-1-ylmethyl)-pyridin-2-yl]-[5-fluoro-4-(7-fluoro-3-isopropyl-2-methyl-3H-benzoimidazol-5-yl)-pyrimidin-2-yl]-amine]
% ΔT/C (25 mg/kg Compound PO QD×28, 25 mg/kg): 5.2%
% ΔT/C (25 mg/kg Compound PO QD×28, listed as compound, 25 mg/kg): approximately 5%
% ΔT/C (50 mg/kg Compound PO QD×28, negative value = % regression): −63.6%
Mean Tumor Volume (day 53, 25 mg/kg Compound PO QD×28, CB17SCID mice, subcutaneous Mino xenografts): 317.4 mm^3
Mean Tumor Volume (day 53, 50 mg/kg Compound PO QD×28, CB17SCID mice, subcutaneous Mino xenografts): 55.4 mm^3
mice achieved a partial response (PR) (day 53, 50 mg/kg abemaciclib, 7 of 7 mice): 100%
mean tumor volume reduced (regression) (day 53, 50 mg/kg compound): 64%
Mean Tumor Volume (day 60 (last day of dosing), 25 mg/kg Compound PO QD×28): 348.6 mm^3
Mean Tumor Volume (day 60 (last day of dosing), 50 mg/kg Compound PO QD×28): 37.9 mm^3
